These results are taken from patent US20240100023A1, “Compositions and Methods For Treating Spinal Cord Injuries” (priority 2020, published 2024).

One data set deals with BDNF and NGF mRNAs. Description: BDNF and NGF mRNA prevalence in brain regions (anti-sense cRNA assays). The format is in vivo. To be noted: for NGF message levels in the dentate gyrus granule cell layers: ampakine-stimulated versus vehicle-treated control; for BDNF and NGF mRNAs in layer II of the piriform cortex: systemic, CX516 30 mg/kg/day, CX691 3 mg/kg/day. The text has this: Ampakines enhanced NGF mRNA somewhat more than that of BDNF.

In data set [1] the test system is fragile X syndrome (FXS) patients. To be noted: in vivo; cited from earlier work.

Turning to `O=C(c1ccc2nccnc2c1)N1CCCCC1` [CX516], in the data set on BDNF and NGF mRNAs, the “NGF message levels in the dentate gyrus granule cell layers” value is listed as “significantly enhanced”; the “BDNF and NGF mRNAs in layer II of the piriform cortex” value is “significantly up-regulated”. Further, the “Memory, language use, attention, executive and overall functioning in FXS” value in data set [1] is “did not exhibit improved memory”.
With `O=C1c2cc3c(cc2OC2CCCN12)OCCO3` (stereo not drawn) [CX614, reference compound], the “Concentration at which seizure activity is seen in hippocampal slices” value in the data set with hippocampal slices turned out to be 16 µM.
On to `O=C(c1ccc2nonc2c1)N1CCCCC1` [CX691], for which, in the data set with BDNF and NGF mRNAs, the “NGF message levels in the dentate gyrus granule cell layers” value is given as “significantly enhanced”; the “BDNF and NGF mRNAs in layer II of the piriform cortex” value is recorded as “significantly up-regulated”.
